One series deals with IRAK4 (Homo sapiens (Human), UniProt Q9NWZ3). Put plainly: IRAK4 Inhibition Assay. It is filed as biochemical. The following applies: ATP 500 μM; IRAK4 0.6 nM. The essentials: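 Mobility-shift kinase assay: 0.6 nM IRAK4, 500 μM ATP, 1.5 μM fluorescent peptide, 60 min, room temperature. Percent inhibition was normalised between enzyme-free and DMSO-only wells.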
A short description of series [1]: Caco-2 Permeability Assay. It is filed as in vitro ADME. The following applies: human, Caco-2, test compound 3 μM. The gist of the method:
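Bidirectional permeability measured over 2 h at 37° C, compound dosed at 3 μM in the donor compartment (apical for absorptive, basolateral for secretive) with plain buffer as receiver.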

In series [2] the test system is Human whole blood stimulated with a TLR2 agonist (lipoteichoic acid), IL-6 levels. Put plainly: IRAK4 Whole Blood Assay. It is filed as cell-based. The conditions noted are these: Homo sapiens, lipoteichoic acid 10 μg/mL. The essentials:
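IL-6 was quantified by cytometric bead assay in supernatants of human blood (ACD-A) stimulated for 5 h with lipoteichoic acid at 10 μg/mL final. Compound exposure preceded stimulation for 60 min at 37 °C, 5% CO2.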

Each structure is given as a SMILES string. Some results are limits rather than exact numbers.

Sequence of IRAK4 (Q9NWZ3 whole entry, species assumed): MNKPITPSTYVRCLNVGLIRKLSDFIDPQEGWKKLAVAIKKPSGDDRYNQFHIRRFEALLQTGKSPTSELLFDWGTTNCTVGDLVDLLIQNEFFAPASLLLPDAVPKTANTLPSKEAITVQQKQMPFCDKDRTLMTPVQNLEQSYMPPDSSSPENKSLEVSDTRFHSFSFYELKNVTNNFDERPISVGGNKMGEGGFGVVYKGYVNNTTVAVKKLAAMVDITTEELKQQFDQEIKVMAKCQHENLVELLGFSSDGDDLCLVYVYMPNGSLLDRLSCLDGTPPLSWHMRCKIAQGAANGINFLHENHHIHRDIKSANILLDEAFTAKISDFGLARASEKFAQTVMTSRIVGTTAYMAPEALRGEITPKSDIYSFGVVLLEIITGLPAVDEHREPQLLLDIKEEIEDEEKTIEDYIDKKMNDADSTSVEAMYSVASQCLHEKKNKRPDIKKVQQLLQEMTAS

On to `CCCn1cc(-c2cnc(-n3ncc4cc(Cl)cnc43)cc2NC(C)C)nn1` [Example 218, 2-(5-chloro-1H-pyrazolo[3,4-b]pyridin-1-yl)-N-isopropyl-5-(1-propyl-1H-1,2,3-triazol-4-yl)pyridin-4-amine], for which the IC50 at IRAK4 amounted to 9 nM. The compound further yielded an apparent permeability coefficient (Papp) at 2 h, 3 µM in series [1] of 12.5 ×10⁻⁶ cm/s. The concentration giving a half-maximal response (EC50) in series [2] is 2090 nM.
In the same order, the values of `CCCn1cnc(-c2cnc(-n3ncc4cc(C#N)cnc43)cc2NC(C)C)c1` [Example 219] are 10 nM, 31.8 ×10⁻⁶ cm/s and 1480 nM.
For `CC(C)Nc1cc(-n2ncc3cc(C#N)cnc32)ncc1-c1cn(CCC(C)(C)O)cn1` [Example 240, 1-(5-(1-(3-hydroxy-3-methylbutyl)-1H-imidazol-4-yl)-4-(isopropylamino)pyridin-2-yl)-1H-pyrazolo[3,4-b]pyridine-5-carbonitrile] the same measures were 3 nM, 5.7 ×10⁻⁶ cm/s and 740 nM.
For `CCCc1cn(-c2cnc(-n3ncc4cc(C#N)cnc43)cc2NC(C)C)nn1` [Example 263, 1-(4-(isopropylamino)-5-(4-propyl-1H-1,2,3-triazol-1-yl)pyridin-2-yl)-1H-pyrazolo[3,4-b]pyridine-5-carbonitrile] the same measures were 15 nM, 7.8 ×10⁻⁶ cm/s and 330 nM.
With `CC(O)Cc1cn(-c2cnc(-n3ncc4cc(C#N)cnc43)cc2NCC(C)(C)O)nn1` (stereo not drawn) [Example 264, 1-(4-((2-hydroxy-2-methylpropyl)amino)-5-(4-(2-hydroxypropyl)-1H-1,2,3-triazol-1-yl)pyridin-2-yl)-1H-pyrazolo[3,4-b]pyridine-5-carbonitrile], at IRAK4, the half-inhibitory concentration (IC50) worked out at 8 nM. This compound also showed a Papp at 2 h, 3 µM in series [1] of 22.5 ×10⁻⁶ cm/s. Moreover, it took 330 nM to reach a half-maximal effect in series [2] (EC50).
With `CCCc1cn(-c2cnc(-n3ncc4cc(C#N)cnc43)cc2Nc2cnn(CC(F)F)c2)nn1` [Example 269, 1-(4-((1-(2,2-difluoroethyl)-1H-pyrazol-4-yl)amino)-5-(4-propyl-1H-1,2,3-triazol-1-yl)pyridin-2-yl)-1H-pyrazolo[3,4-b]pyridine-5-carbonitrile], the IC50 on IRAK4 turned out to be 4 nM. The compound further had an apparent permeability (Papp) at 2 h, 3 µM in series [1] of 3.8 ×10⁻⁶ cm/s. The compound further gave a 50% effective concentration (EC50) in series [2] of 390 nM.
Consider `CCCc1cn(-c2cnc(-n3ncc4cncnc43)cc2Nc2cnn(CC(F)F)c2)nn1` [Example 270, N-(1-(2,2-difluoroethyl)-1H-pyrazol-4-yl)-5-(4-propyl-1H-1,2,3-triazol-1-yl)-2-(1H-pyrazolo[3,4-d]pyrimidin-1-yl)pyridin-4-amine], for which the IC50 at IRAK4 was 6 nM. In series [1], this compound showed a Papp at 2 h, 3 µM of 37.2 ×10⁻⁶ cm/s. This compound yielded an EC50 in series [2] of 1170 nM.
In the same order, the values of `CCCc1cn(-c2cnc(-n3ncc4cc(C#N)c(N)nc43)cc2NC(C)C)nn1` [Example 280, 6-amino-1-(4-(isopropylamino)-5-(4-propyl-1H-1,2,3-triazol-1-yl)pyridin-2-yl)-1H-pyrazolo[3,4-b]pyridine-5-carbonitrile] are 3 nM, 27.6 ×10⁻⁶ cm/s and 230 nM.
In the same order, the values of `CC(C)Nc1cc(-n2ncc3cc(C#N)cnc32)ncc1-n1cc(CCCO)nn1` [Example 296, 1-(5-(4-(3-hydroxypropyl)-1H-1,2,3-triazol-1-yl)-4-(isopropylamino)pyridin-2-yl)-1H-pyrazolo[3,4-b]pyridine-5-carbonitrile] are 11 nM, 4.4 ×10⁻⁶ cm/s and 240 nM.
For `CC(C)Nc1cc(-n2ncc3cc(C#N)cnc32)ncc1-n1cc(CCCCO)nn1` [Example 311, 1-(5-(4-(4-hydroxybutyl)-1H-1,2,3-triazol-1-yl)-4-(isopropylamino)pyridin-2-yl)-1H-pyrazolo [3,4-b]pyridine-5-carbonitrile] the same measures were 6 nM, 6.4 ×10⁻⁶ cm/s and 120 nM.
Consider `CCC(C)(O)Cc1cn(-c2cnc(-n3ncc4cc(C#N)cnc43)cc2NC(C)C)nn1` (stereo not drawn) [Example 318, 1-(5-(4-(2-hydroxy-2-methylbutyl)-1H-1,2,3-triazol-1-yl)-4-(isopropylamino)pyridin-2-yl)-1H-pyrazolo[3,4-b]pyridine-5-carbonitrile], for which, at IRAK4, the 50% inhibitory concentration (IC50) was 25 nM. Also, the Papp at 2 h, 3 µM in series [1] stood at 10.8 ×10⁻⁶ cm/s. The compound further yielded an EC50 in series [2] of 790 nM.
For `CC(C)Nc1cc(-n2ncc3cc(C#N)cnc32)ncc1-n1cc(CCC(C)(C)O)nn1` [Example 327, 1-(5-(4-(3-hydroxy-3-methylbutyl)-1H-1,2,3-triazol-1-yl)-4-(isopropylamino)pyridin-2-yl)-1H-pyrazolo[3,4-b]pyridine-5-carbonitrile] the same measures were 3 nM, 7.4 ×10⁻⁶ cm/s and 200 nM.
For `CC(=O)Cc1cn(-c2cnc(-n3ncc4cc(C#N)cnc43)cc2NC(C)C)nn1` [Example 331, 1-(4-(isopropylamino)-5-(4-(2-oxopropyl)-1H-1,2,3-triazol-1-yl)pyridin-2-yl)-1H-pyrazolo[3,4-b]pyridine-5-carbonitrile] the same measures were 10 nM, 9.2 ×10⁻⁶ cm/s and 2560 nM.
For the compound `CC(C)Nc1cc(-n2ncc3cc(C#N)cnc32)ncc1-n1cc(C2CCNCC2)nn1` [Example 334, 1-(4-(isopropylamino)-5-(4-(piperidin-4-yl)-1H-1,2,3-triazol-1-yl)pyridin-2-yl)-1H-pyrazolo[3,4-b]pyridine-5-carbonitrile], the IC50 at IRAK4 stood at 2 nM. For the same compound, the Papp at 2 h, 3 µM in series [1] was less than 1.5 ×10⁻⁶ cm/s. This compound also showed an EC50 in series [2] of 70 nM.
Regarding `CC(C)Nc1cc(-n2ncc3cc(C#N)cnc32)ncc1-n1cc(C2CCN(CC(F)F)CC2)nn1` [Example 336, 1-(5-(4-(1-(2,2-difluoroethyl)piperidin-4-yl)-1H-1,2,3-triazol-1-yl)-4-(isopropylamino)pyridin-2-yl)-1H-pyrazolo[3,4-b]pyridine-5-carbonitrile], the IC50 on IRAK4 amounted to 7 nM. In series [1], the apparent permeability coefficient (Papp) at 2 h, 3 µM stood at 25 ×10⁻⁶ cm/s. In addition, the EC50 in series [2] stood at 220 nM.
For `CC(C)Nc1cc(-n2ncc3cc(C#N)cnc32)ncc1-n1cc(C2CCN(C(C)C)CC2)nn1` [Example 337, 1-(4-(isopropylamino)-5-(4-(1-isopropylpiperidin-4-yl)-1H-1,2,3-triazol-1-yl)pyridin-2-yl)-1H-pyrazolo[3,4-b]pyridine-5-carbonitrile] the same measures were 6 nM, less than 1.5 ×10⁻⁶ cm/s and 280 nM.
For `COC(=O)N1CCC(c2cn(-c3cnc(-n4ncc5cc(C#N)cnc54)cc3NC(C)C)nn2)CC1` [Example 338, methyl 4-(1-(6-(5-cyano-1H-pyrazolo[3,4-b]pyridin-1-yl)-4-(isopropylamino)pyridin-3-yl)-1H-1,2,3-triazol-4-yl)piperidine-1-carboxylate] the same measures were 6 nM, 17.9 ×10⁻⁶ cm/s and 380 nM.
For `CC(=O)N1CC(c2cn(-c3cnc(-n4ncc5cc(C#N)cnc54)cc3NC(C)C)nn2)C1` [Example 339, 1-(5-(4-(1-acetylazetidin-3-yl)-1H-1,2,3-triazol-1-yl)-4-(isopropylamino)pyridin-2-yl)-1H-pyrazolo[3,4-b]pyridine-5-carbonitrile] the same measures were 5 nM, less than 1.5 ×10⁻⁶ cm/s and 390 nM.
On to `CC(=O)NC1CCC(c2cn(-c3cnc(-n4ncc5cc(C#N)cnc54)cc3NC(C)C)nn2)CC1` (stereo not drawn) [Example 341, N-((1s,4s)-4-(1-(6-(5-cyano-1H-pyrazolo[3,4-b]pyridin-1-yl)-4-(isopropylamino)pyridin-3-yl)-1H-1,2,3-triazol-4-yl)cyclohexyl)acetamide], for which the IC50 on IRAK4 was determined as 3 nM. In series [1], the apparent permeability coefficient (Papp) at 2 h, 3 µM was less than 1.5 ×10⁻⁶ cm/s. The compound further had an EC50 in series [2] of 300 nM.
For `N#Cc1cnc2c(cnn2-c2cc(NC3CC3)c(-n3cc(C4CCOCC4)nn3)cn2)c1` [Example 348, 1-(4-(cyclopropylamino)-5-(4-(tetrahydro-2H-pyran-4-yl)-1H-1,2,3-triazol-1-yl)pyridin-2-yl)-1H-pyrazolo[3,4-b]pyridine-5-carbonitrile] the same measures were 13 nM, 41 ×10⁻⁶ cm/s and 170 nM.
In the same order, the values of `CC(C)Nc1cc(-n2ncc3cc(C#N)cnc32)ncc1-n1cc(CCN2CCOCC2)nn1` [Example 349, 1-(4-(isopropylamino)-5-(4-(2-morpholinoethyl)-1H-1,2,3-triazol-1-yl)pyridin-2-yl)-1H-pyrazolo[3,4-b]pyridine-5-carbonitrile] are 3 nM, 18.6 ×10⁻⁶ cm/s and 270 nM.
In the same order, the values of `CC(C)Nc1cc(-n2ncc3cnc(N)nc32)ncc1-n1cc(CCC(C)(C)O)nn1` [Example 350, 4-(1-(6-(6-amino-1H-pyrazolo[3,4-d]pyrimidin-1-yl)-4-(isopropylamino)pyridin-3-yl)-1H-1,2,3-triazol-4-yl)-2-methylbutan-2-ol] are 6 nM, 6.4 ×10⁻⁶ cm/s and 280 nM.
For `CC(C)Nc1cc(-n2ncc3cnc(N)nc32)ncc1-n1cc(CCC(C)(C)F)nn1` [Example 351, 1-(5-(4-(3-fluoro-3-methylbutyl)-1H-1,2,3-triazol-1-yl)-4-(isopropylamino)pyridin-2-yl)-1H-pyrazolo[3,4-d]pyrimidin-6-amine], on IRAK4, the half-maximal inhibitory concentration (IC50) amounted to 4 nM. Also, the apparent permeability coefficient (Papp) at 2 h, 3 µM in series [1] is 30.6 ×10⁻⁶ cm/s. In series [2], this compound registered an EC50 of 370 nM.

(Values after US10294229B2, “Heteroaryl substituted aminopyridine compounds” (BRISTOL-MYERS SQUIBB COMPANY, priority 2015, dated 2019).)
